Assay results taken from patent EP0604248A1, “Use of 5-methoxypsoralen for the treatment of AIDS” (Goupil, Jean-Jacques, priority 1992, dated 1994).

How the values were obtained:
[1] = test system: VIH-1; assay: Residual infectivity of treated HIV-1 on MT4 cells (cytopathic effect, p25 antigen, reverse transcriptase activity); assay type: cell-based; conditions: Human immunodeficiency virus 1, light or radiation study
Procedure: (§1) Cette étude a été réalisée en 2 étapes : • traitements du virus VIH-1 (ou HIV-1) par le 5-méthoxypsoralène (5-MOP) et les UVA. • étude de l'infectivité résiduelle des échantillons traités à l'aide des tests sur cellules MT4 et sur lymphocytes activés.
(§2) Le virus a été traité par 10 µg/ml de 5-MOP, puis exposé aux UVA (1 à 2 Joules/cm²) de la façon suivante: • 4 ml de virus VIH-1 ont été traités avec 40 µl de 5-MOP à 1 mg/ml puis exposés aux UVA (intensité de 1,5 mW/cm²) pendant 17 minutes (échantillon PUV 10), • l'irradiation aux UVA a été faite avec la lampe PUVA 200 WALDMANN en déposant les flacons contenant le virus sur un lit de glace, afin d'éviter au maximum l'échauffement.
Les témoins pour cette expérience ont été les suivants : • le virus VIH-1 utilisé, non traité (échantillon PUV 1), • 4 ml du virus utilisé, traité uniquement par 40 µl de DMSO, afin de vérifier une éventuelle toxicité due au DMSO (échantillon PUV 2), • le virus utilisé, traité avec 10 µg/ml de 5-MOP, mais sans irradiation UVA (échantillon PUV 6), • le virus utilisé, traité uniquement par irradiation UVA pendant 17 minutes à 1,5 mW/cm² (échantillon PUV 5), • le virus utilisé, sans traitement, gardé à la température de l'expérience, pendant toute la durée du traitement, afin de vérifier la perte d'infectivité due aux conditions de la manipulation (échantillon PUV 9). […]

[2] = test system: VIH-1; assay: Residual infectivity of treated HIV-1 on primary cultures of activated human lymphocytes (reverse transcriptase activity in supernatants, 28 days); assay type: cell-based; conditions: for log reduction at 10 µg/mL: Human immunodeficiency virus 1, Lymphocyte, light or radiation study
Procedure: as §1, §2
Les témoins pour cette expérience ont été les suivants : • le virus VIH-1 utilisé, non traité (échantillon PUV 1), • 4 ml du virus utilisé, traité uniquement par 40 µl de DMSO, afin de vérifier une éventuelle toxicité due au DMSO (échantillon PUV 2), • le virus utilisé, traité avec 10 µg/ml de 5-MOP, mais sans irradiation UVA (échantillon PUV 6), • le virus utilisé, traité uniquement par irradiation UVA pendant 17 minutes à 1,5 mW/cm² (échantillon PUV 5), • le virus utilisé, sans traitement, gardé à la température de l'expérience, pendant toute la durée du traitement, afin de vérifier la perte d'infectivité due aux conditions de la manipulation (échantillon PUV 9).
• a - Sur cellules MT4 : Des dilutions successives de chaque échantillon ont été testées en duplicata. 100 µl de chaque dilution ont été mis en contact 1 heure à 37°C avec 3.10⁵ cellules MT4 par puits de plaque COSTAR 24 puits. Les cellules ont été centrifugées afin d'éliminer le produit éventuellement toxique, puis resuspendues dans 1 ml du milieu de culture. Aux jours 3 et 6, 750 µl de surnageant ont été ôtés, remplacés par du milieu de culture frais et la concentration cellulaire ajustée à 3.10⁵ cellules par millilitre. Au jour 10, l'effet cytopathogène et la mortalité cellulaire ont été évalués par observation au microscope après coloration au bleu Trypan. Des dosages de l'activité transcriptase inverse ont été réalisés à partir des surnageants de culture conservés à chaque passage (jours 3, 6 et 10). • b - Sur lymphocytes humains activés : Un culot de 3.10⁶ lymphocytes préalablement stimulés à la PHA a été incubé avec 1 ml de chaque échantillon (de 10⁻¹ à 10⁻⁵ pour chaque échantillon, sauf pour l'échantillon PUV10 testé également non dilué) pendant 1 heure à 37°C. Puis les cellules ont été centrifugées et resuspendues à 10⁶ cellules par millilitre dans du milieu complet. Tous les 3 ou 4 jours, les cellules ont été comptées, réensemencées à 10⁶ cellules/ml et les surnageants conservés à -80°C. […]

In the case of `COc1c2ccoc2cc2oc(=O)ccc12` [5-MOP, 5-méthoxypsoralène], the log reduction at 10 µg/mL ([1]; 5-MOP seul à 10 µg/ml, no UVA (sample PUV6), versus control PUV9, read-out: perte d'infectivité) is reported as 0.5, the log reduction at 10 µg/mL ([1]; 5-MOP à 10 µg/ml et UVA (sample PUV10), versus control PUV9, read-out: réduction du titre infectieux) is reported as 2.5 and the “réduction du pouvoir infectieux du virus” value ([2]; 5-MOP seul, no UVA (control treatment), overall conclusion) is reported as “sans effet”. The titre ([2]; 5-MOP à 10 µg/ml et UVA (sample PUV10), activated human lymphocytes (PBL)) was 100 UI/ml, the log reduction at 10 µg/mL ([2]; 5-MOP à 10 µg/ml et UVA (sample PUV10, tested undiluted), activated human lymphocytes (PBL), read-out: inactivation virale) was 3 and the log reduction at 10 µg/mL ([2]; 5-MOP à 10 µg/ml et UVA, overall conclusion, read-out: réduction du pouvoir infectieux du virus) was ~3.
